# In US9243272B2, “Enzyme preparation containing thermostable DNA polymerase, method for producing same, and method for detecting subject organism to be detected” (HOKKAIDO MITSUI CHEMICALS INC., priority 2009, dated 2016):
# Experiments:
# [1] = tested on: Bacillus cereus; assay: Rapid liquid phase drug sensitivity test, enrichment rate by real-time PCR (e-DNAP, non-display method); type: cell-based; details: 10 μg/mL; four hours after culture; enrichment rate without antibiotic agent defined as 100%
# Description: (§1) In current drug sensitivity tests, it generally takes several days to obtain results. However, when the highly sensitive quantification method in accordance with the present invention is applied, results can be obtained in only four to six hours. […] Accordingly, a sensitive test must be started once culture was carried out, so that it takes at least one day to obtain a result. An equal amount of each sample (for example, blood of septicemia) was infused into a liquid medium (BHI: Brain Heart Infusion), each sample medium was collected before culture, two hours after the culture, and four hours after the culture under the condition in which an antibiotic agent was added or not added, cells were subjected to centrifugation and pelletizing so as to obtain DNA, respectively. Furthermore, it is desirable that extraction of DNA is carried out by using an automatic nucleic acid extraction device. A real-time PCR reagent for detecting bacteria, conditions and the primer constitution were the same as in Example 2. When calculation is carried out when the quantification result before culture is defined as 0 and the quantification result two hours after and four hours after culture in which an antibiotic agent was not added is respectively defined as 100 (an enrichment rate when an antibiotic agent was not added is defined as 100%), the enrichment rate was calculated two hours after and four hours after the culture in which an antibiotic agent was added. For example, the amount of bacteria/fungi before culture is […], the amount of bacteria two hours after culture in which an antibiotic agent is not added is […], and the amount two hours after culture in which an antibiotic agent is added is […], the enrichment rate two hours after an antibiotic agent is added can be calculated by the following formula: Enrichment rate two hours after an antibiotic agent is added=[…])×100 (%) Alternatively, instead of comparing the enrichment rates, the amounts […] be compared directly. […]
# [2] = tested on: Staphylococcus epidermidis; assay: Rapid liquid phase drug sensitivity test, bacteria quantified by real-time PCR (e-DNAP, non-display method); type: cell-based; details: 10 μg/mL; two hours and four hours after culture
# Description: as §1, with “An equal amount of each sample (for example, blood of septicemia) was infused into a liquid medium (BHI: Brain Heart Infusion), each sample medium was collected before culture, two hours after the culture, and four hours after the culture under the condition in which an antibiotic agent was added or not added, cells were subjected to centrifugation and pelletizing so as to obtain DNA, respectively. Furthermore, it is desirable that extraction of DNA is carried out by using an automatic nucleic acid extraction device. A real-time PCR reagent for detecting bacteria, conditions and the primer constitution were the same as in Example 2.” left out
# [3] = tested on: bacterial 16S rRNA-derived gene; assay: Amplification curve and melting curve analysis by real-time PCR (contamination of non-specific nucleic acid); design: species or system Escherichia coli; details: real-time PCR 60 cycles; template not added
# Description: In order to investigate contamination of non-specific nucleic acid in the above-mentioned thermostable DNA polymerase preparations, analyses of an amplification curve and a melting curve were carried out by using real-time PCR. FIGS. 5(A) and FIG. 5(B) show analysis of amplification curves. FIGS. 6(A) and FIG. 6(B) show analysis of melting curves. Furthermore, FIG. 5(A) and FIG. 6(A) are graphs showing analysis carried out by using thermostable DNA polymerase preparation produced by using AmpliTaq Gold LD as a host. FIG. 5(B) and FIG. 6(B) are graphs showing analysis carried out by using thermostable DNA polymerase preparation produced by using S. cerevisiae as a host. Solid lines show a case in which Escherichia coli was added as a template, and broken lines show a case in which a template was not added. As the real-time PCR reagent, ×10 Buffer was obtained by adding 10 μl of ultrapure water into a 1b tube of LightCycler FastStart DNA Master SYBR GreenI (Roche). In this tube, dNTPs and SYBR GreenI in addition to a buffer reagent optimized for the Taq DNA polymerase are contained. […]
Compound,enrichment rate [1] [%],drug sensitivity (comparison of amount of bacteria itself) [2],contamination of non-specific nucleic acid in amplification curve and melting curve [3]
CC1(C)S[C@@H]2[C@H](NC(=O)[C@H](N)c3ccccc3)C(=O)N2[C@H]1C(=O)O [ampicillin],0,–,–
Cc1nnc(SCC2=C(C(=O)O)N3C(=O)[C@@H](NC(=O)Cn4cnnn4)[C@H]3SC2)s1 [cefazolin],16,–,–
CC[C@H]1OC(=O)[C@H](C)[C@@H](O[C@H]2C[C@@](C)(OC)[C@@H](O)[C@H](C)O2)[C@H](C)[C@@H](O[C@@H]2O[C@H](C)C[C@H](N(C)C)[C@H]2O)[C@](C)(O)C[C@@H](C)C(=O)[C@H](C)[C@@H](O)[C@]1(C)O [erythromycin],76,sensitivity to EM was observed,–
"AmpliTaq Gold LD: commercial thermostable DNA polymerase preparation (ABI), produced in bacteria and purified to minimize bacterial DNA",–,–,contamination of non-specific nucleic acid was observed
gentamicin,–,sensitivity to GM was not observed,–
